The target of assay [1] is T1, Protein cereblon/Tyrosine-protein kinase ABL1/Breakpoint cluster region protein (Homo sapiens, UniProt P00519+P11274+Q96SW2). Kind of assay: Protac activity at CRBN/BCR-ABL in human K562 cells assessed as increase in BCR-ABL degradation at 5 nM by Western blotting analysis. The class given is cell-based. For orientation: Immunoblotting shows a protein as a band on a membrane.

For assay [2], the target named is T1, Protein cereblon/Tyrosine-protein kinase ABL1/Breakpoint cluster region protein. Put plainly: Protac activity at CRBN/BCR-ABL in human K562 cells assessed as increase in BCR-ABL degradation at 100 nM by Western blotting analysis. The class given is cell-based.
The test system of assay [3] is K562. Kind of assay: cells. The note with it: Homo sapiens, K562, 48 h.
Description: Antiproliferative activity against human K562 cells assessed as inhibition of cell growth incubated for 2 days by CCK8 assay
For assay [4], the target named is T1, Protein cereblon/Tyrosine-protein kinase ABL1/Breakpoint cluster region protein. Kind of assay: Protac activity at CRBN/BCR-ABL in human K562 cells assessed as increase in BCR-ABL degradation at 50 nM by Western blotting analysis. The class given is cell-based.

pIC50: −log10 of the molar value.

T1 sequence (P00519 whole entry, looked up): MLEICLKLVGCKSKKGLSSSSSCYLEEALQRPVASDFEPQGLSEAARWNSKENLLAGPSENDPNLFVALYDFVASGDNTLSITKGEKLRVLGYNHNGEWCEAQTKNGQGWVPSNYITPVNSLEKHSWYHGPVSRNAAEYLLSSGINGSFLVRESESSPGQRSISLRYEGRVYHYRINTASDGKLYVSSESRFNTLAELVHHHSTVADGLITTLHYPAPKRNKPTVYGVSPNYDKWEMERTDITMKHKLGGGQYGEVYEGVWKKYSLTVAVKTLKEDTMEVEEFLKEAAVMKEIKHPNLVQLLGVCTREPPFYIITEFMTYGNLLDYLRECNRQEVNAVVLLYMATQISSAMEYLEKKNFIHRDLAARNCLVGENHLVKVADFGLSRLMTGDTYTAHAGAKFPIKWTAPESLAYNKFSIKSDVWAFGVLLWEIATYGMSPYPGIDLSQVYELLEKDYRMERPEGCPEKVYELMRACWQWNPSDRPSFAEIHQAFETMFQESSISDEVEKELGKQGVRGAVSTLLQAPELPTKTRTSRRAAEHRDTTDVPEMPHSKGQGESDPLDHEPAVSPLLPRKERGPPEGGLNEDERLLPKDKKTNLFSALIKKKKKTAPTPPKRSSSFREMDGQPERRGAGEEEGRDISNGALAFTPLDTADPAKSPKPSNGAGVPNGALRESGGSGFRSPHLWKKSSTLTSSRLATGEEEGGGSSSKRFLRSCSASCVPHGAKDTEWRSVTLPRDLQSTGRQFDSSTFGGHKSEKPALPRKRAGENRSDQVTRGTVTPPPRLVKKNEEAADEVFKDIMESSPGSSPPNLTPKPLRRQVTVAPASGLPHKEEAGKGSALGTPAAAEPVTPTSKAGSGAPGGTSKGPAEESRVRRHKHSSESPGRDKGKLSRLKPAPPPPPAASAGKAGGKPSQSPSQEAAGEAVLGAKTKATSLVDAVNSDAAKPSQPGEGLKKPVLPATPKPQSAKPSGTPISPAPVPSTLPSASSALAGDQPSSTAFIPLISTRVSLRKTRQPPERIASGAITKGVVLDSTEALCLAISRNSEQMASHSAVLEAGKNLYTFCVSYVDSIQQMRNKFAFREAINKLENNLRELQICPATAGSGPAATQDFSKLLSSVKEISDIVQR
T1 sequence (P11274 whole entry, looked up): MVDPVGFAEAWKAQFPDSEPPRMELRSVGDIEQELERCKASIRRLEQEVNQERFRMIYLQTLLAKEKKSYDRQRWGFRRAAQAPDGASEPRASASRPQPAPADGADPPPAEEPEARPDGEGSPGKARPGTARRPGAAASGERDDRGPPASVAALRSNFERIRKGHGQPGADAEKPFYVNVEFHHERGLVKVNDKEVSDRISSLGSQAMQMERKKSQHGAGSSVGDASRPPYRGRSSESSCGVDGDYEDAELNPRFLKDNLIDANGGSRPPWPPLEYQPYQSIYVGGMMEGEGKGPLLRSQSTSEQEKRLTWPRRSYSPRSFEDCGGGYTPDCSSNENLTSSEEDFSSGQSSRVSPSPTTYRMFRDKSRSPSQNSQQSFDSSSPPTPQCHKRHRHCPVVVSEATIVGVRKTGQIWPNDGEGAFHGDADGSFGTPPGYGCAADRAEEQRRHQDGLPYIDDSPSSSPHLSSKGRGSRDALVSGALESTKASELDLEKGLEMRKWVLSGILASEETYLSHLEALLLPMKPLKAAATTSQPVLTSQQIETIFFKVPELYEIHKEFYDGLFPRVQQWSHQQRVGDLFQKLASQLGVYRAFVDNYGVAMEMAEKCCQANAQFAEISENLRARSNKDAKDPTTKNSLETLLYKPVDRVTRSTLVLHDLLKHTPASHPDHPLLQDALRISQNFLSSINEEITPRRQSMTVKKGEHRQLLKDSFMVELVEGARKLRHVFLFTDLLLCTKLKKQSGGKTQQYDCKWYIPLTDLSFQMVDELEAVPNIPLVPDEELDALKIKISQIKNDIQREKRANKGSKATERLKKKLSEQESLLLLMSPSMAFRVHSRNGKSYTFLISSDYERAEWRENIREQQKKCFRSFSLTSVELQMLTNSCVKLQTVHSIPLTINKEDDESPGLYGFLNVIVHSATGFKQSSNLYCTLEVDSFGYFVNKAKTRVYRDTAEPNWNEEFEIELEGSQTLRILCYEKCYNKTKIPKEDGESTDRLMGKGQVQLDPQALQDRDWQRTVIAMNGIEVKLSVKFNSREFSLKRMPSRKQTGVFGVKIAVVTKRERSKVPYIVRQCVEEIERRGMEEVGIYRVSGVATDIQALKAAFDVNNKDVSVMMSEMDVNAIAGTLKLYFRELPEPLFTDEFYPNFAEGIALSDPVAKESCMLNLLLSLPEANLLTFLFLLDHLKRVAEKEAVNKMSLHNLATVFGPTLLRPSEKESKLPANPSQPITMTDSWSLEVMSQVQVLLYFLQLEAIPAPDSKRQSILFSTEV
T1 sequence (Q96SW2 whole entry, looked up): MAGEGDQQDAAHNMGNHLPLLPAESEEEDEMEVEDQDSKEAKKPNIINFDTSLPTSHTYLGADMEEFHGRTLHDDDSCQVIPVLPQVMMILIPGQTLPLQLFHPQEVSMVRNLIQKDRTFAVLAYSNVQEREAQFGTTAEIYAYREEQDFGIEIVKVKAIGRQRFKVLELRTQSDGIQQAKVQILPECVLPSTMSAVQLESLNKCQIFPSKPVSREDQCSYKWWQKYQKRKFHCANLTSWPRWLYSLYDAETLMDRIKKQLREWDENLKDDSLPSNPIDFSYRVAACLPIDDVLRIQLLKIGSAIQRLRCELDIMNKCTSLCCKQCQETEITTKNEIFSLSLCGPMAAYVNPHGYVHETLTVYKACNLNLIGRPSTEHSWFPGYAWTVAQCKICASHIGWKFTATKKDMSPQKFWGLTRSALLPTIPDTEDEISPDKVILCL

With `O=C1CCC(N2Cc3c(OCCCCCCN4CCN(C5CCN(c6ncc(C(=O)Nc7ccc(OC(F)(F)Cl)cc7)cc6-c6ccn[nH]6)CC5)CC4)cccc3C2=O)C(=O)N1` (stereo unspecified), the results for the Activity in assay [1] and in assay [2] were 28.8% and 67.9%, respectively. Besides, in assay [3], the negative logarithm of the IC50 (pIC50) (commonly the IC50 on a negative log10 scale, so that one unit is a factor of ten) is 7.18.

As to `O=C1CCC(N2Cc3c(OCCCC(=O)N4CCN(c5ncc(C(=O)Nc6ccc(OC(F)(F)Cl)cc6)cc5-c5ccn[nH]5)CC4)cccc3C2=O)C(=O)N1` (stereo unspecified), the Activity in assay [4] was -12.3%. Further, in assay [3], the pIC50 is 5.67.

Take `O=C1CCC(N2C(=O)c3cccc(NCCOCCOCCC(=O)N4CCN(c5ncc(C(=O)Nc6ccc(OC(F)(F)Cl)cc6)cc5-c5ccn[nH]5)CC4)c3C2=O)C(=O)N1` (stereo unspecified): in assay [4], the Activity is -1.5%. Moreover, in assay [3], the pIC50 is 5.96.

As for `O=C1CCC(N2C(=O)c3cccc(SCCCC(=O)N4CCN(c5ncc(C(=O)Nc6ccc(OC(F)(F)Cl)cc6)cc5-c5ccn[nH]5)CC4)c3C2=O)C(=O)N1` (stereo unspecified), the Activity in assay [4] worked out at 9.57%. In assay [3], this compound had a pIC50 of 6.28.

Take `O=C1CCC(N2Cc3c(SCCCC(=O)N4CCN(c5ncc(C(=O)Nc6ccc(OC(F)(F)Cl)cc6)cc5-c5ccn[nH]5)CC4)cccc3C2=O)C(=O)N1` (stereo unspecified): the Activity in assay [4] is 35.1%. The pIC50 in assay [3] was 6.98.

In the case of `O=C1CCC(N2C(=O)c3cccc(NCCCCCC(=O)N4CCN(c5ncc(C(=O)Nc6ccc(OC(F)(F)Cl)cc6)cc5-c5ccn[nH]5)CC4)c3C2=O)C(=O)N1` (stereo unspecified), the Activity in assay [4] is 1.67%. In addition, in assay [3], the pIC50 was 6.73.

Take `O=C1CCC(N2Cc3c(C#CCCCCN4CCN(c5ncc(C(=O)Nc6ccc(OC(F)(F)Cl)cc6)cc5-c5ccn[nH]5)CC4)cccc3C2=O)C(=O)N1` (stereo unspecified): the Activity worked out at 32.8% in assay [1] and 89.1% in assay [2]. In assay [3], the negative-log IC50 (pIC50) is 7.39.

With `O=C1CCC(N2C(=O)c3cccc(NCCCCC(=O)N4CCN(c5ncc(C(=O)Nc6ccc(OC(F)(F)Cl)cc6)cc5-c5ccn[nH]5)CC4)c3C2=O)C(=O)N1` (stereo unspecified), the Activity in assay [4] was 1.94%. In assay [3], this compound showed a pIC50 of 6.77.

With `O=C1CCC(N2Cc3c(SCCCCCCNc4ncc(C(=O)Nc5ccc(OC(F)(F)Cl)cc5)cc4-c4ccn[nH]4)cccc3C2=O)C(=O)N1` (stereo unspecified), the Activity in assay [1] is -5.46%; in assay [2] it was -8.74%. In assay [3], this compound showed a pIC50 of 5.71.

Turning to `O=C1CCC(N2Cc3c(C#CCCCCCCN4CCN(C5CCN(c6ncc(C(=O)Nc7ccc(OC(F)(F)Cl)cc7)cc6-c6ccn[nH]6)CC5)CC4)cccc3C2=O)C(=O)N1` (stereo unspecified), the Activity in assay [1] is 38.4%; in assay [2], 29.9%. In assay [3], this compound had a pIC50 of 6.91.

Take `O=C1CCC(N2C(=O)c3cccc(NCCCC(=O)N4CCN(c5ncc(C(=O)Nc6ccc(OC(F)(F)Cl)cc6)cc5-c5ccn[nH]5)CC4)c3C2=O)C(=O)N1` (stereo unspecified): the Activity in assay [4] was found to be 9.05%. In assay [3], this compound showed a pIC50 of 6.89.

Consider `O=C1CCC(N2Cc3c(SCCOCC(=O)N4CCN(c5ncc(C(=O)Nc6ccc(OC(F)(F)Cl)cc6)cc5-c5ccn[nH]5)CC4)cccc3C2=O)C(=O)N1` (stereo unspecified), for which, in assay [4], the Activity came out at 10.2%. The same compound had a pIC50 in assay [3] of 6.81.

For the compound `O=C1CCC(N2Cc3c(SCCCCCNc4ncc(C(=O)Nc5ccc(OC(F)(F)Cl)cc5)cc4-c4ccn[nH]4)cccc3C2=O)C(=O)N1` (stereo unspecified), the Activity worked out at 6.85% in assay [1] and 29.6% in assay [2]. The compound further had a pIC50 in assay [3] of 6.25.

In assay [3], `Nc1cccc2c1CN(C1CCC(=O)NC1=O)C2=O` (stereo unspecified) [LENALIDOMIDE] gave a pIC50 of less than 5.00.

In the case of `O=C1CCC(N2Cc3c(SCCCCNc4ncc(C(=O)Nc5ccc(OC(F)(F)Cl)cc5)cc4-c4ccn[nH]4)cccc3C2=O)C(=O)N1` (stereo unspecified), the figures for the Activity in assay [1] and in assay [2] were -3.56% and -9.23%, respectively. In assay [3], this compound showed a negative logarithm of the IC50 (pIC50) of 6.03.

Take `O=C1CCC(N2C(=O)c3cccc(OCCCC(=O)N4CCN(c5ncc(C(=O)Nc6ccc(OC(F)(F)Cl)cc6)cc5-c5ccn[nH]5)CC4)c3C2=O)C(=O)N1` (stereo unspecified): in assay [4], the Activity was -1.35%. The compound further had a pIC50 in assay [3] of 5.95.

Turning to `O=C1CCC(N2C(=O)c3cccc(SCCCCN4CCN(C5CCN(c6ncc(C(=O)Nc7ccc(OC(F)(F)Cl)cc7)cc6-c6ccn[nH]6)CC5)CC4)c3C2=O)C(=O)N1` (stereo unspecified), the results for the Activity in assay [1] and in assay [2] were 38.2% and 70.9%, respectively. In addition, the pIC50 in assay [3] is 6.77.

Turning to `O=C1CCC(N2Cc3c(SCCCCCCNC4CCN(c5ncc(C(=O)Nc6ccc(OC(F)(F)Cl)cc6)cc5-c5ccn[nH]5)CC4)cccc3C2=O)C(=O)N1` (stereo unspecified), the Activity in assay [1] was determined as 29.4%; in assay [2], 70.9%. Also, in assay [3], the negative-log IC50 (pIC50) was 6.64.

With `O=C1CCC(N2C(=O)c3cccc(NCCCCCCC(=O)N4CCN(c5ncc(C(=O)Nc6ccc(OC(F)(F)Cl)cc6)cc5-c5ccn[nH]5)CC4)c3C2=O)C(=O)N1` (stereo unspecified), the Activity in assay [4] amounted to 1%. Also, the pIC50 in assay [3] was 6.42.

Take `O=C1CCC(N2Cc3c(SCCCCN4CCN(C5CCN(c6ncc(C(=O)Nc7ccc(OC(F)(F)Cl)cc7)cc6-c6ccn[nH]6)CC5)CC4)cccc3C2=O)C(=O)N1` (stereo unspecified): the results for the Activity in assay [1] and in assay [2] were 38.9% and 86.1%, respectively. This compound also gave a negative logarithm of the IC50 (pIC50) in assay [3] of 7.46.

Turning to `O=C1CCC(N2Cc3c(SCCCCN4CCN(c5ncc(C(=O)Nc6ccc(OC(F)(F)Cl)cc6)cc5-c5ccn[nH]5)CC4)cccc3C2=O)C(=O)N1` (stereo unspecified), the Activity in assay [1] was determined as 40.8%; in assay [2], 87.8%. The pIC50 in assay [3] was 7.52.

`O=C1CCC(N2Cc3c(OCCCCN4CCN(c5ncc(C(=O)Nc6ccc(OC(F)(F)Cl)cc6)cc5-c5ccn[nH]5)CC4)cccc3C2=O)C(=O)N1` (stereo unspecified): the Activity in assay [1] was 30.6%; in assay [2], 89.2%. The pIC50 in assay [3] was 7.17.

As for `O=C1CCC(N2Cc3c(SCCCCCCN4CCN(c5ncc(C(=O)Nc6ccc(OC(F)(F)Cl)cc6)cc5-c5ccn[nH]5)CC4)cccc3C2=O)C(=O)N1` (stereo unspecified), the Activity is 24.6% in assay [1] and 40.8% in assay [2]. This compound also gave a pIC50 in assay [3] of 6.53.

Take `O=C1CCC(N2Cc3c(SCCCN4CCN(c5ncc(C(=O)Nc6ccc(OC(F)(F)Cl)cc6)cc5-c5ccn[nH]5)CC4)cccc3C2=O)C(=O)N1` (stereo unspecified): the Activity in assay [1] stood at 48.4%; in assay [2], 40%. Also, the negative logarithm of the IC50 (pIC50) in assay [3] was 6.86.

Regarding `O=C1CCC(N2Cc3c(SCCCCCCCN4CCN(C5CCN(c6ncc(C(=O)Nc7ccc(OC(F)(F)Cl)cc7)cc6-c6ccn[nH]6)CC5)CC4)cccc3C2=O)C(=O)N1` (stereo unspecified), the Activity is 21.9% in assay [1] and 64.4% in assay [2]. In assay [3], this compound had a pIC50 of 7.33.

For the compound `O=C1CCC(N2Cc3c(SCCCN4CCN(C5CCN(c6ncc(C(=O)Nc7ccc(OC(F)(F)Cl)cc7)cc6-c6ccn[nH]6)CC5)CC4)cccc3C2=O)C(=O)N1` (stereo unspecified), the Activity in assay [1] amounted to 55.5%; in assay [2], 49.6%. In addition, the pIC50 in assay [3] was 7.31.

Take `O=C1CCC(N2Cc3c(SCCCCNC4CCN(c5ncc(C(=O)Nc6ccc(OC(F)(F)Cl)cc6)cc5-c5ccn[nH]5)CC4)cccc3C2=O)C(=O)N1` (stereo unspecified): the Activity in assay [1] was determined as 5.76%; in assay [2] it was 41.6%. The compound further had a pIC50 in assay [3] of 6.49.

On to `O=C1CCC(N2Cc3c(SCCCCCNC4CCN(c5ncc(C(=O)Nc6ccc(OC(F)(F)Cl)cc6)cc5-c5ccn[nH]5)CC4)cccc3C2=O)C(=O)N1` (stereo unspecified), for which the results for the Activity in assay [1] and in assay [2] were -3.96% and 29.7%, respectively. In addition, the pIC50 in assay [3] is 6.01.

Consider `O=C1CCC(N2Cc3c(SCCCCCN4CCN(C5CCN(c6ncc(C(=O)Nc7ccc(OC(F)(F)Cl)cc7)cc6-c6ccn[nH]6)CC5)CC4)cccc3C2=O)C(=O)N1` (stereo unspecified), for which the values for the Activity in assay [1] and in assay [2] were 24.3% and 37.1%, respectively. The compound also gave a negative logarithm of the IC50 (pIC50) in assay [3] of 7.64.

For the compound `Nc1cccc2c1C(=O)N(C1CCC(=O)NC1=O)C2=O` (stereo unspecified) [POMALIDOMIDE], the negative logarithm of the IC50 (pIC50) in assay [3] is less than 5.00.

The record behind these values is ChEMBL document CHEMBL5247625, “Discovery and characterization of novel potent BCR-ABL degraders by conjugating allosteric inhibitor” (Eur J Med Chem, 2022).
